From article PMC6316846, “Pretargeted Imaging with Gallium-68—Improving the Binding Capability by Increasing the Number of Tetrazine Motifs” (Pharmaceuticals, 2018)
Like-named read-outs stand apart in the source and are kept apart here. Blank lines part the entries; values can stand above or below the molecule they belong to.

Key:
[1] = Distribution coefficient (logD), octanol/PBS; assay type: physicochemical; conditions: mean ± SD (n = 3); for LogD (pH 7.4): ^68Ga-labelled compound
Method: To determine the distribution of the ^68Ga-labelled conjugates between an organic (octanol) and aqueous (PBS) layer, aliquots (50 µL) of the tracers (~5 µM) were diluted in 1 mL of octanol/PBS (1:1, v/v). The mixture was vortexed at 1400 rpm (MS 3 basic vortexer, IKA, Staufen, Germany) for 15 min at RT followed by centrifugation for 2 min at 4500 rpm. Subsequently, aliquots (50 µL) of both layers were collected and measured in the gamma counter (Wizard2 3”, Perkin Elmer, Waltham, MA, USA) followed by logD calculation (n = 3, six replicates).

[2] = Serum protein binding, Sephadex G-50 size exclusion; assay type: in vitro ADME; conditions: ^68Ga-labelled compound, human serum, 37 °C, mean ± SD (n = 3)
Method: Serum protein binding was determined using Sephadex G-50 (GE Healthcare Vienna, Austria) size exclusion chromatography. Aliquots (50 µL, n = 3) of the radioligand solution (~10 µM) were incubated in 450 µL freshly prepared human serum or 450 µL PBS (controls) and were kept at 37 °C. After 1, 2, and 4 h aliquots (25 µL) were directly transferred to the column (MicroSpin G-50, GE Healthcare) and after centrifugation (2 min, 2000 rcf) the column containing the free conjugate and the eluate containing the protein-bound conjugate were measured in the gamma counter. The percent of activity in both fractions was calculated thereafter.

immobilized RTX-TCO = assay: Competitive binding assay on immobilized RTX-TCO; conditions: non-labelled conjugate as competitor, 30 min RT
Method: Binding on immobilized RTX-TCO was conducted using high protein-binding capacity Nunc MaxiSorp™ 96-well plates (Thermo Fisher Scientific, Vienna, Austria). Coating was performed by adding 20 µg of antibody (RTX or RTX-TCO) dissolved in 100 µL coating buffer (0.1 M NaHCO3, pH 8.5) to each well and after 2 h incubation at RT the plate was left at 4 °C overnight both under the exclusion of light. After removal of the coating solution 200 µL of blocking buffer (1% BSA in PBS) was added, left for 1 h at room temperature and subsequently each well was washed twice with 200 µL binding buffer (0.1% BSA in PBS). Hereafter, the radioligand was mixed with increasing concentrations of the competitor (=non-labelled conjugate), diluted in binding buffer and 100 µL of the mixture was added to each well. After 30 min at RT the supernatant was removed, each well was washed three times with 150 µL binding buffer and the coating film was finally detached with 2 × 150 µL of hot (80 °C) 2 N sodium hydroxide (NaOH). The NaOH fraction was taken for gamma counter measurement to determine the percentage of binding in contrast to the standard followed by non-liner curve fitting using Origin 6.1 software (Origin Inc., Northampton, MA, USA) to calculate the apparent half maximum inhibitory concentration of the competitor (n = 3, 4 replicates).

[3] = test system: CD20-expressing Raji cells; assay: FACS analysis of antibody binding to Raji cells; assay type: cell-based; conditions: antibody at 20 µM, APC-labelled anti-human IgG Fc secondary antibody
Method: The humanoid lymphoblast-like CD20-expressing B-lymphocyte cells (Raji cells) were purchased from American Type Culture Collection (ATCC, Manassas, VA, USA). Flow cytometric analysis of CD20 expression was evaluated on (Raji cells) adjusted to 5 × 10^5 cells/sample in DMEM (including 10% FCS, 1% Pen/Strep). Cells were incubated with FC-Block (containing CD16/CD32 (1:200), e-Bioscience, Thermo Fisher Scientific, Vienna, Austria) for 15 min at 4 °C in order to avoid signals from non-specific binding. The following antibodies were used: RTX-TCO and RTX, both at 20 µM (f. c.). As secondary antibody a APC-labelled anti-human IgG Fc (clone: HP6017; BioLedgend, San Diego, CA, USA) at a dilution of 1:100 was used. Antibodies were incubated for at least 15 min at 4 °C. FACS analysis was performed on BD LSRFortessa™ (Cell Analyzer, BD Bioscience, San Jose, CA, USA). As internal control samples unstained or stained with either primary or secondary antibodies were analyzed. FACS-data was analyzed by FlowJo v10 software.

[4] = radioligand [^68Ga]Ga-Tz-dimer, read-out: Competitor concentration reducing binding of [^68Ga]Ga-Tz-dimer by 50%
[5] = radioligand [^68Ga]Ga-Tz-monomer, read-out: Competitor concentration reducing binding of [^68Ga]Ga-Tz-monomer by 50%
[6] = radioligand [^68Ga]Ga-Tz-trimer, read-out: Competitor concentration reducing binding of [^68Ga]Ga-Tz-trimer by 50%

Molecule: CC(=O)NC1CCCN(O)C(=O)/C=C(/C)CCOC(=O)C(NC(=O)CCOCCOCCOCCOCCOCCC(=O)NCc2ccc(-c3nncnn3)cc2)CCCN(O)C(=O)/C=C(/C)CCOC(=O)C(NC(=O)CCOCCOCCOCCOCCOCCC(=O)NCc2ccc(-c3nncnn3)cc2)CCCN(O)C(=O)/C=C(/C)CCOC1=O (centres unmarked) [Tz-dimer, MAFC-(PEG5-Tz)2]
- LogD (pH 7.4) [1]: −1.35 ± 0.01
- Protein Binding (%) 1 h ([2]; 1 h): 67.0 ± 2.4%
- Protein Binding (%) 2 h ([2]; 2 h): 65.9 ± 1.3%
- Protein Binding (%) 4 h ([2]; 4 h): 68.4 ± 0.3%
- IC50 (immobilized RTX-TCO; [4]): 95 ± 25 nM
- IC50 (immobilized RTX-TCO; [5]): 112 ± 6 nM
- IC50 (immobilized RTX-TCO; [6]): 258 ± 60 nM

Molecule: TCO-modified RTX: anti-CD20 monoclonal antibody rituximab modified with trans-cyclooctene (TCO-NHS ester)
- Target specificity by FACS [3]: high target specificity

Molecule: rituximab [non-modified RTX, reference compound]
- Target specificity by FACS [3]: high target specificity

The remaining lines, values ahead:

- logD ([1]; octanol/PBS (1:1, v/v), pH 7.4, ^68Ga-labelled compound): -1.64 ± 0.02
- fraction unbound at 1 h ([2]; 1 h): 0.382
- fraction unbound at 2 h ([2]; 2 h): 0.362
- fraction unbound at 4 h ([2]; 4 h): 0.36
- IC50 (immobilized RTX-TCO; [4]): 865 ± 263 nM
- IC50 (immobilized RTX-TCO; [5]): 486 ± 52 nM
- IC50 (immobilized RTX-TCO; [6]): 2990 ± 1660 nM
Molecule: CC(=O)NC1CCCN(O)C(=O)/C=C(/C)CCOC(=O)C(NC(=O)CCOCCOCCOCCOCCOCCC(=O)NCc2ccc(-c3nncnn3)cc2)CCCN(O)C(=O)/C=C(/C)CCOC(=O)C(NC(C)=O)CCCN(O)C(=O)/C=C(/C)CCOC1=O (centres unmarked) [Tz-monomer, DAFC-PEG5-Tz]

- LogD (pH 7.4) [1]: −1.00 ± 0.06
- Protein Binding (%) 1 h ([2]; 1 h): 70.5 ± 0.7%
- Protein Binding (%) 2 h ([2]; 2 h): 69.5 ± 0.4%
- Protein Binding (%) 4 h ([2]; 4 h): 67.8 ± 0.4%
- IC50 (immobilized RTX-TCO; [4]): 92 ± 15 nM
- IC50 (immobilized RTX-TCO; [5]): 100 ± 10 nM
- IC50 (immobilized RTX-TCO; [6]): 147 ± 49 nM
Molecule: C/C1=C/C(=O)N(O)CCCC(NC(=O)CCOCCOCCOCCOCCOCCC(=O)NCc2ccc(-c3nncnn3)cc2)C(=O)OCC/C(C)=C\C(=O)N(O)CCCC(NC(=O)CCOCCOCCOCCOCCOCCC(=O)NCc2ccc(-c3nncnn3)cc2)C(=O)OCC/C(C)=C\C(=O)N(O)CCCC(NC(=O)CCOCCOCCOCCOCCOCCC(=O)NCc2ccc(-c3nncnn3)cc2)C(=O)OCC1 (centres unmarked) [Tz-trimer, FSC-(PEG5-Tz)3]
